Here are results for 2 compounds from ChEMBL document CHEMBL3045831, “Insight into the structural requirement of aryltriazolinone derivatives as angiotensin II AT1 receptor: 2D and 3D-QSAR k-Nearest Neighbor Molecular Field Analysis approach” (Med Chem Res, 2012).

The structures appear in SMILES notation.

In this assay the target is T1, Type-1 angiotensin II receptor (Oryctolagus cuniculus, UniProt P34976).
T1 sequence (P34976 whole entry): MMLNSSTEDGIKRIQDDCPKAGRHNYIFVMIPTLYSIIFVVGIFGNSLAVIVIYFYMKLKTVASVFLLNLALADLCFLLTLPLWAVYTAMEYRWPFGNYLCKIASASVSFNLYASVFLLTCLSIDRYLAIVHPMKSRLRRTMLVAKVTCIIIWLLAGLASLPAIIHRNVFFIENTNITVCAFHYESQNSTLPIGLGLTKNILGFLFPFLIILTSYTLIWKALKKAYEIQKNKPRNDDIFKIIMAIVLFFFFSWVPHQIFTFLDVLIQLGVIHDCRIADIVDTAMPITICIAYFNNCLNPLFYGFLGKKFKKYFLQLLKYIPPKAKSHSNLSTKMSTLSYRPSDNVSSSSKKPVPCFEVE
Kind of assay: Antagonist activity at Oryctolagus cuniculus (rabbit) aortic AT1 receptor.

Regarding `CCCCNC(=O)c1ccc(Cl)c(-n2nc(CCCC)n(Cc3ccc(-c4ccccc4S(=O)(=O)NC(=O)OC(C)(C)C)cc3F)c2=O)c1`, the IC50 (read-out: pIC50 (converted)) was 0.178 nM.

As for `CCCCC(=O)Nc1ccc(Cl)c(-n2nc(CCC)n(Cc3ccc(-c4ccccc4S(=O)(=O)NC(=O)c4cc(Cl)ccc4Cl)cc3F)c2=O)c1`, the IC50 (read-out: IC50) is 0.19 nM.
